Measurements: patent publication US11918577B2, “Dipeptidyl peptidase-4 inhibitors for topical eye treatment of retinal neurodegenerative diseases” (FUNDACIÓ HOSPITAL UNIVERSITARI VALL D'HEBRON - INSTITUT DE …, priority 2016, dated 2024)
Each block holds one molecule with its values, some of them ahead of it.

How the values were obtained:
db/db mice = conditions: orally administered, diabetic mice (db/db); cited from earlier work
C. Elegans = conditions: high glucose levels, no GLP-1R expression; cited from earlier work
db/db mouse [1] = test: Glial activation (GFAP staining score) in retina of db/db mice, eye drops; format: in vivo; conditions: for GFAP score of the treated mice / reactive gliosis: eye drops for two weeks; for GFAP score of the treated mice: all cases, scale 1-5; for reactive gliosis: vs vehicle
Source text: (§1) It has been reported that db/db mice reproduce the features of the neurodegenerative process that occurs in the human diabetic eye. Therefore, it is an appropriate model for testing neuroprotective drugs (according to Bogdanov et al., “The db/db mouse: a useful model for the study of diabetic retinal neurodegeneration”, PLoS One—2014, vol. no. 9(5):e97302). A total of 20 male db/db (BKS.Cg-+Lepr db/+Lepr db/OlaHsd) mice aged 10 weeks were purchased from Harlan Laboratories, Inc. In addition, 10 non-diabetic (db/+) mice matched by age were used as control group.
(§2) This study was approved by the Animal Care and Use Committee of VHIR (Vali d′Hebron Research Institute). All the experiments were performed in accordance with the tenets of the European Community (86/609/CEE) and ARVO (Association for Research in Vision and Ophthalmology).
Glial activation was evaluated by Laser Scanning Confocal microscopy using specific antibodies against GFAP (Glial fibrillar acidic protein). Sections were fixed in acid methanol (−20° C.) for 2 min, followed by three washes with PBS, 5 min each. Sections were permeabilized with TBS-Triton X-100 0.025% and were incubated in blocker (1% BSA, and 10% goat serum in PBS) for 2 hours at room temperature. Sections were then incubated with rabbit anti-GFAP (Abcam Ltd, Cambridge, U.K.) (1:500 dilution prepared in blocking solution) overnight at 4° C. in a humid atmosphere. After three washes in PBS, 5 min each, the sections were incubated with secondary antibody Alexa 488 goat-anti-rabbit (Invitrogen) (1:200 dilution prepared in blocking solution). The sections were washed three times in PBS, counterstained with Hoestch and mounted with Mounting Medium Fluorescence (Prolong, Invitrogen) and mounted with a coverslip. Comparative digital images from samples were recorded with a Fluoview FV 1000 Laser Scanning Confocal Microscope Olympus using identical brightness and contrast settings.
To evaluate the degree of glial activation it was used a scoring system based on the extent of GFAP staining previously described (Anderson et al., “Glial and endothelial blood-retinal barrier responses to amyloid-beta in the neural retina of the rat”, Clin Ophthalmol—2008, vol. no. 2, pp.:801-816). This scoring system was as follows: Müller cell endfeet region/GCL only (score 1); Müller cell endfeet region/GCL plus a few proximal processes (score 2); Müller cell endfeet plus many processes, but not extending to ONL (score 3); Müller cell endfeet plus processes throughout with some in the ONL (score 4); Müller cell endfeet plus lots of dark processes from GCL to outer margin of ONL (score 5).
The scoring system was as follows: Müller cell endfeet region/GCL only (score 1); Müller cell endfeet region/GCL plus a few proximal processes (score 2); Müller cell endfeet plus many processes, but not extending to ONL (score 3); Müller cell endfeet plus processes throughout with some in the ONL (score 4); Müller cell endfeet plus lots of dark processes from GCL to outer margin of ONL (score 5). n=10 mice per group (5 retinal sections per mice).
(§3) The design and methodology were the same than used in Example 2.

db/db mouse [2] = test: Retinal apoptosis (TUNEL) in db/db mice, eye drops; format: in vivo; conditions: eye drops for two weeks, ONL, INL, GCL, vs vehicle
Source text: as §1, §2
The TUNEL (Terminal Transferase dUTP Nick-End Labeling) staining was carried out using the DeadEnd Fluorometric TUNEL System kit (PROMEGA, Madison, WI, USA). Cryosections of retina were permeabilised by incubation for 2 min on ice with 0.1% Triton X-100 in 0.1% sodium citrate, freshly prepared. The secondary antibody was Alexa 488 goat-anti-rabbit (Invitrogen, San Diego CA, USA). For evaluation by Laser Scanning Confocal microscopy the excitation wavelength was 488 nm and detection in the range of 515-565 nm (green) was used. […]

db/db mouse [3] = test: Retinal glutamate quantification (UPLC) in db/db mice, eye drops; format: in vivo; conditions: p<0.05
Source text: as §1, §2
Quantification of glutamate was performed by reverse phase ultra-performance liquid chromatography (UPLC) (Acquity-UPLC, Waters) as aminoquinoline derivatives (AccQ-Tag chemistry, MassTrak AAA method and instruments, Waters, Milford, MA).
as §3

[4] = test system: GLAST (glutamate-aspartate transporter); test: GLAST immunofluorescence in retina of db/db mice, eye drops; format: in vivo, mouse
Source text: as §1, §2
GLAST (glutamate-aspartate transporter), the main glutamate transporter, was evaluated by fluorescence microscopy using specific antibodies. GLAST was evaluated by fluorescence microscopy using specific antibodies [rabbit anti-GLAST (EAAT1) (1:100, Abcam ab416, Cambridge, UK).
as §3

db/db mouse [5] = test: Blood-retinal barrier: albumin leakage (Evans blue, albumin immunofluorescence) in db/db mice, eye drops; format: in vivo; conditions: for albumin leakage (extravasation of albumin): vs vehicle
Source text: as §1, §2
(§4) In the lower panel FIG. 6(B) the quantification of albumin immunofluorescence of digital images with Fluoview FV 1000 Laser Scanning Microscope is shown. Immunohistochemistry images of Fluoview FV 1000 Laser Scanning Microscope from which quantification of albumina (in red) was done are not shown. The three type of samples tested were: D-Sham, D-SAXAGLIPTIN and C (db/+). Results are the mean±SD. *p <0.05 between db/db treated with vehicle (D-Sham) and the other groups.
as §3
as §4, with “9(B)” for “6(B)”, “D-Sitagliptin” for “D-SAXAGLIPTIN”, “*p<0.05” for “*p <0.05”

[6] = test system: GLP-1 and its main downstream messenger cAMP; test: Intraretinal content of GLP-1 and cAMP in db/db mice, eye drops (data not shown); format: in vivo, mouse
Source text: Without being bound to any theory, inventors consider that, in fact, the DPP-4 inhibitors themselves activate unrelated downstream GLP-1R pathways that might be involved in neuroprotection.

db/db mouse [7] = test: Full field electroretinography (ERG) in db/db mice, eye drops; format: in vivo
Method: Full field electroretinography (ERG) recordings were measured using the Ganzfeld ERG platform (Phoenix Research Laboratories, Pleasanton, CA) following ISCEV (International Society for Clinical Electrophysiology of Vision) recommendations (according to Marmor et al., “Standard for clinical electroretinography.”, International Society for Clinical Electrophysiology of Vision (2004), Doc Ophthalmol—2004; vol. 108, pp.:107-114).

[8] = administered in the form of eye drops; cited from earlier work

SMILES: N[C@@H](CC(=O)N1CCc2c(nc(C(F)(F)F)nc2C(F)(F)F)C1)CN1CC(F)(F)CCC1=O [Gemigliptin, (3S)-3-amino-4-(5,5-difluoro-2-oxopiperidino)-1-[2,4-di(trifluoromethyl)-5,6,7,8-tetrahydropyrido[3,4-d]pyrimidin-7-yl]butan-1-one]
retinal pericyte apoptosis (db/db mice): ameliorate
vascular leakage (db/db mice): ameliorate

SMILES: CC#CCn1c(N2CCC[C@@H](N)C2)nc2c1c(=O)n(Cc1nc(C)c3ccccc3n1)c(=O)n2C [Linagliptin, 8-[(3R)-3-aminopiperidin-1-yl]-7-(but-2-yn-1-yl)-3-methyl-1-[(4-methylquinazolin-2-yl)methyl]-3,7-dihydro-1H-purine-2,6-dione]
neuroprotective effect (C. Elegans): neuroprotective effect

SMILES: N#C[C@@H]1C[C@@H]2C[C@@H]2N1C(=O)[C@@H](N)C12CC3CC(CC(O)(C3)C1)C2 [Saxagliptin, (1S,3S,5S)-2-[(2S)-2-amino-2-(3-hydroxy-1-adamantyl)acetyl]-2-azabicyclo[3.1.0]hexane-3-carbonitrile]
GFAP score of the treated mice (db/db mouse [1]): < 3
reactive gliosis (db/db mouse [1]): significant decrease
% positive GFAP labeling, score 1 (db/db mouse [1]; eye drops twice daily for 14 days, score 1: Müller cell endfeet region/GCL only): 95.00%
% positive GFAP labeling, score 2 (db/db mouse [1]; eye drops twice daily for 14 days, score 2: endfeet region/GCL plus a few proximal processes): 5.00%
% positive GFAP labeling, score 3 (db/db mouse [1]; eye drops twice daily for 14 days, score 3: endfeet plus many processes, not extending to ONL): 0.00%
% positive GFAP labeling, score 4 (db/db mouse [1]; eye drops twice daily for 14 days, score 4: endfeet plus processes throughout with some in the ONL): 0.00%
% positive GFAP labeling, score 5 (db/db mouse [1]; eye drops twice daily for 14 days, score 5: lots of dark processes from GCL to outer margin of ONL): 0.00%
apoptosis (TUNEL positive cells) in retinal layers (db/db mouse [2]): significant prevention of apoptosis in all retinal layers
retinal glutamate concentration vs diabetic mice treated with vehicle (db/db mouse [3]): significantly lower
downregulation of GLAST induced by diabetes [4]: prevented
albumin leakage (extravasation of albumin) (db/db mouse [5]): prevented albumin leakage
intraretinal content of GLP-1 [6]: significant increase
intraretinal content of cAMP [6]: significant increase

functional abnormalities measured by ERG (db/db mouse [7]): prevented functional abnormalities
SMILES: N[C@@H](CC(=O)N1CCn2c(nnc2C(F)(F)F)C1)Cc1cc(F)c(F)cc1F [Sitagliptin, (R)-4-oxo-4-[3-(trifluoromethyl)-5,6-dihydro[1,2,4]triazolo[4,3-a]pyrazin-7(8H)-yl]-1-(2,4,5-trifluorophenyl)butan-2-amine]
GFAP score of the treated mice (db/db mouse [1]): ≤ 3
reactive gliosis (db/db mouse [1]): significant decrease
GFAP score distribution (Table 2), score 1 (db/db mouse [1]; sitagliptin eye drops for two weeks, score 1): 85.00
GFAP score distribution (Table 2), score 2 (db/db mouse [1]; sitagliptin eye drops for two weeks, score 2): 10.00
GFAP score distribution (Table 2), score 3 (db/db mouse [1]; sitagliptin eye drops for two weeks, score 3): 5.00
GFAP score distribution (Table 2), score 4 (db/db mouse [1]; sitagliptin eye drops for two weeks, score 4): 0.00
GFAP score distribution (Table 2), score 5 (db/db mouse [1]; sitagliptin eye drops for two weeks, score 5): 0.00
apoptosis (TUNEL positive cells) in retinal layers (db/db mouse [2]): significant prevention of apoptosis in all retinal layers
retinal glutamate concentration vs diabetic mice treated with vehicle (db/db mouse [3]): prevented glutamate accumulation
downregulation of GLAST induced by diabetes [4]: abrogating the downregulation of GLAST
sealing function of the BRB (db/db mouse [5]): preserved the sealing function of the BRB
albumin leakage (extravasation of albumin) (db/db mouse [5]): prevented albumin leakage
intraretinal content of GLP-1 [6]: significant increase
intraretinal content of cAMP [6]: significant increase

SMILES: Cc1cc(-c2cc(O)ccc2Cl)cc2nnc(Nc3ccc(OCCN4CCCC4)cc3)nc12 [TG100572, 4-chloro-3-(5-methyl-3-{[4-(2-pyrrolidin-1-ylethoxy)phenyl]amino}-1,2,4-benzotriazin-7-yl)phenol]
reaching the target in the retina [8]: able to reach the target in the retina
